This passage reports IC50 results from patent US10179771B2 (GALAPAGOS NV, priority 2014, dated 2019).

Structures are written as SMILES.

Usually IC50 stands for the concentration needed to halve the response being measured.

In experiment [1] the target is T1, Recombinant human JAK1 catalytic domain (Homo sapiens, UniProt P23458).
T1 construct: Recombinant human JAK1 (catalytic domain, amino acids 866-1154; catalog number PV4774); purchased Invitrogen PV4774
Put plainly: JAK1 inhibition assay (polyGT substrate / Ulight-JAK1 peptide assay). It is filed as biochemical.

For experiment [2], the target named is T2, Recombinant human JAK3 catalytic domain (Homo sapiens, UniProt P52333).
T2 construct: Recombinant human JAK3 catalytic domain (amino acids 781-1124; catalog number PV3855); purchased Invitrogen PV3855
T2 sequence (P52333 781-1124): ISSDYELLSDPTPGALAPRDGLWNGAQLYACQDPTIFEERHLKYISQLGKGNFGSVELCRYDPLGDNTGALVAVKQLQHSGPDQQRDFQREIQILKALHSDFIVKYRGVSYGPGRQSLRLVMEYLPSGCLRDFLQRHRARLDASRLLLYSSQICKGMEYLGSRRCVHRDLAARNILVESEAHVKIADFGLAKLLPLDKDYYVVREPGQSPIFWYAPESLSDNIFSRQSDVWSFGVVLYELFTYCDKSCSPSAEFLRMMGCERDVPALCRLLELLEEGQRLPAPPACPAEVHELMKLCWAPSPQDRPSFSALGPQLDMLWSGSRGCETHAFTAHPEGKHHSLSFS
The experiment in a line: JAK3 inhibition assay. It is filed as biochemical. On the procedure: Recombinant human JAK3 catalytic domain (amino acids 781-1124; catalog number PV3855) was purchased from Invitrogen. 0.5 ng JAK3 protein was incubated with 2.5 μg polyGT substrate (Sigma catalog number P0275) in kinase reaction buffer (25 mM Tris pH 7.5, 0.5 mM EGTA, 10 mM MgCl2, 2.5 mM DTT, 0.5 mM Na3VO4, 5 mM b-glycerolphosphate, 0.01% Triton X-100, 1 μM non-radioactive ATP, […] ^33P-gamma-ATP (GE Healthcare, catalog number AH9968) final concentrations) with or without 5 μL containing test compound or vehicle (DMSO, 1% final concentration), in a total volume of 25 μL, in a polypropylene 96-well plate (Greiner, V-bottom). After 45 min at 30° C., reactions were stopped by adding 25 μL/well of 150 mM phosphoric acid. All of the terminated kinase reaction was transferred to prewashed (75 mM phosphoric acid) 96 well filter plates (Perkin Elmer catalog number 6005177) using a cell harvester (Perkin Elmer). Plates were washed 6 times with 300 μL per well of a 75 mM phosphoric acid solution and the bottom of the plates was sealed. 40 μL/well of Microscint-20 was added, the top of the plates was sealed and readout was performed using the Topcount (Perkin Elmer). Kinase activity was calculated by subtracting counts per min (cpm) obtained in the presence of a positive control inhibitor (10 μM staurosporine) from cpm obtained in the presence of vehicle. The ability of a test compound to inhibit this activity was determined as:
[formula] • RFU test compound=RFU determined for sample with test compound present • RFU control=RFU determined for sample with positive control inhibitor • RFU vehicle=RFU determined in the presence of vehicle
Dose dilution series were prepared for the compounds enabling the testing of dose-response effects in the JAK3 assay and the calculation of the IC50 for each compound. Each compound was routinely tested at concentration of 20 μM followed by a 1/5 serial dilution, 10 points in a final concentration of 1% DMSO. When potency of compound series increased, more dilutions were prepared and/or the top concentration was lowered (e.g. 5 μM, 1 μM).

T1 sequence (P23458 866-1154): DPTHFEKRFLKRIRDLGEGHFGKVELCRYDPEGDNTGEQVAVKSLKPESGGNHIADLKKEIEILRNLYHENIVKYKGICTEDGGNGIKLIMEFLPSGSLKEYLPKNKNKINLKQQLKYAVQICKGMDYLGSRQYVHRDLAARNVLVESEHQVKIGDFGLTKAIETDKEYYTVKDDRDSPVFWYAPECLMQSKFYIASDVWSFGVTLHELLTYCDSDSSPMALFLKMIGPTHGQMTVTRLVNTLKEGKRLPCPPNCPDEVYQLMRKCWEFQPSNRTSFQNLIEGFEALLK

In the case of `Cc1cc(C#N)ncc1Oc1cc(NC(=O)NC(C)C)c2ncn(C)c2c1` [Cpd 38, 1-[6-[(6-cyano-4-methyl-3-pyridyl)oxy]-1-methyl-benzimidazol-4-yl]-3-isopropyl-urea], the values for the IC50 in experiment [1] (Illustrative Compounds of the invention (Table V)) and in experiment [2] (Illustrative Compounds of the invention (Table IX)) were 0.1 to 50 nM and more than 500 nM, respectively.
As to `CN(c1cc2c(cn1)ncn2C)c1ccc(C#N)cc1F` [D, reference compound], the IC50 in experiment [1] (Comparative Compounds (Table VI)) and in experiment [2] (Comparative Compounds (Table X)) was more than 500 nM throughout.
